According to paper PMC9495235, “New MraYAA Inhibitors with an Aminoribosyl Uridine Structure and an Oxadiazole” (Antibiotics, 2022):
Entries after “also recorded” stand apart in the source; their conditions may differ.

Experiments:
[1] = target: T1, MraY transferase purified from Aquifex aeolicus (MraYAA) (Aquifex aeolicus, UniProt O66465); assay: Inhibition of MraYAA transferase activity; type: biochemical; conditions: for IC50: read-out: IC50 against MraYAA
T1 construct: His; made in house
Description: The inhibitory activity of the synthesized compounds 12a–12j was evaluated on MraY transferase purified from Aquifex aeolicus (MraYAA) prepared as previously described by Chung et al.. Their activity (Table 4) was compared to the inhibitory activity of the N-triazole-containing inhibitor 13 (Figure 3) that we previously synthesized (Table 4). Commercially available tunicamycin from Streptomyces sp. was used as a positive control in the test.
The inhibitory activity of the synthesized compounds 1–5 was determined as described in reference except that compounds were tested at a final concentration of 10% DMSO. The compounds were evaluated on His-tagged MraY transferase purified from Aquifex aeolicus (MraYAA) prepared as previously described by Chung et al.. The assays were performed as previously described by Stachyra et al..

[2] = tested on: Citrobacter freundii ATCC 8090; assay: Antibacterial activity (CMI); type: cell-based; conditions: Gram -
Description: (§1) The antibacterial activity of MraY inhibitors 12a–12h was also evaluated against several bacterial strains. Gram-negative (E. coli ATCC 8730, C. freundii ATCC8090 and P. aeruginosa ATCC 27853) and Gram-positive pathogenic bacterial strains (S. aureus ATCC 25923 and E. faecium ATCC 19434), including a methicillin-resistant strain (S. aureus MRSA ATCC 43300), were selected as a representative of pathogen bacterial diversity. Piperacillin and vancomycin were used as positive control in the tests.
(§2) Antibacterial activity was determined as previously described, but molecules were solubilized in 100% DMSO (cell culture grade) at 1 mg/mL concentration and 10-fold diluted in MHB just before utilization. The MHB-diluted solutions were then serially diluted in 5% DMSO-MHB, at final concentrations ranging from […] for compounds and 6.25 to 5% for DMSO.
(§3) Table S1. Antibacterial activity of compounds 12a-12i, and reference compounds.
(§4) final concentration tested

[3] = tested on: Enterococcus faecium ATCC 19434; assay: Antibacterial activity (CMI); type: cell-based; conditions: Gram +
Description: as §1, §2, §3, §4

[4] = tested on: Escherichia coli ATCC 8730; assay: Antibacterial activity (CMI); type: cell-based; conditions: Gram -
Description: as §1, §2, §3, §4

[5] = tested on: Pseudomonas aeruginosa ATCC 27853; assay: Antibacterial activity (CMI); type: cell-based; conditions: Gram -
Description: as §1, §2, §3, §4

[6] = tested on: Staphylococcus aureus ATCC 25923; assay: Antibacterial activity (CMI); type: cell-based; conditions: Gram +
Description: as §1, §2, §3, §4

[7] = tested on: Staphylococcus aureus MRSA ATCC 43300; assay: Antibacterial activity (CMI); type: cell-based; conditions: Gram +
Description: as §1, §2, §3, §4

[8] = Solubility in 5%DMSO-water (culture media); type: physicochemical; conditions: at the highest final concentration tested
Description: as §2, §3, §4

[9] = final concentration of 10% DMSO, triplicate, repeated at least twice (tunicamycin tested twice)

T1 sequence (O66465 whole entry): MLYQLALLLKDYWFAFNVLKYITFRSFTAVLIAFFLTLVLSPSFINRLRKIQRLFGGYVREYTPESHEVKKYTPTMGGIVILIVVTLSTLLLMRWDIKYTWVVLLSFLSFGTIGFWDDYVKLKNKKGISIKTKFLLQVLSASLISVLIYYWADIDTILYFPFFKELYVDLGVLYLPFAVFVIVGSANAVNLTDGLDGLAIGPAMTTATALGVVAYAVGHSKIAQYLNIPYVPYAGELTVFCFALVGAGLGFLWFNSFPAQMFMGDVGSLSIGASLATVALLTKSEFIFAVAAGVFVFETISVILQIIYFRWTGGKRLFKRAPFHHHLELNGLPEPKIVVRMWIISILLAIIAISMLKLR

CCCCCCCCCC(C(=O)OCC)c1nc(C[C@H](O[C@@H]2O[C@H](CN)[C@@H](O)[C@H]2O)[C@H]2O[C@@H](n3ccc(=O)[nH]c3=O)[C@H](O)[C@@H]2O)no1 (mixture of isomers) [Compound 12h] showed an IC50 [1, 9] of 27.5 ± 0.7 µM, a CMI [2] greater than 50 µg/mL and a CMI [3] greater than 50 µg/mL. The CMI [4] was greater than 50 µg/mL, the CMI [5] was greater than 50 µg/mL and the CMI [6] was greater than 50 µg/mL. It also gave a CMI [7] greater than 50 µg/mL.
With CCCCCCCCCCc1nc(C[C@H](O[C@@H]2O[C@H](CN)[C@@H](O)[C@H]2O)[C@H]2O[C@@H](n3ccc(=O)[nH]c3=O)[C@H](O)[C@@H]2O)no1.O=C(O)C(F)(F)F [Compound 12a] the IC50 [1, 9] was 0.8 ± 0.1 µM, the CMI [2] was greater than 50 µg/mL and the CMI [3] was greater than 50 µg/mL. For the same molecule, the CMI [4] was greater than 50 µg/mL, the CMI [5] was greater than 50 µg/mL and the CMI [6] was greater than 50 µg/mL. The CMI [7] was greater than 50 µg/mL.
CCCCCCCCCCCCCCCc1nc(C[C@H](O[C@@H]2O[C@H](CN)[C@@H](O)[C@H]2O)[C@H]2O[C@@H](n3ccc(=O)[nH]c3=O)[C@H](O)[C@@H]2O)no1.O=C(O)C(F)(F)F [Compound 12b] showed an IC50 [1, 9] of 9.3 ± 0.2 µM, a CMI [2] greater than 50 µg/mL and a CMI [3] greater than 50 µg/mL. The CMI [4] was greater than 50 µg/mL, the CMI [5] was greater than 50 µg/mL and the CMI [6] was greater than 50 µg/mL. It also gave a CMI [7] greater than 50 µg/mL.
In the case of CCCCCCCCCCCCCCCCCCc1nc(C[C@H](O[C@@H]2O[C@H](CN)[C@@H](O)[C@H]2O)[C@H]2O[C@@H](n3ccc(=O)[nH]c3=O)[C@H](O)[C@@H]2O)no1.O=C(O)C(F)(F)F [Compound 12c], the IC50 [1, 9] is reported as 15.8 ± 1 µM, the CMI [2] is reported as greater than 50 µg/mL and the CMI [3] is reported as 50 µg/mL. It also gave a CMI [4] greater than 50 µg/mL, a CMI [5] greater than 50 µg/mL and a CMI [6] of 50 µg/mL. The CMI [7] was 50 µg/mL and the “solubility in 5%DMSO-water (culture media)” value (shortened to “solubility in 5%DMSO-water”) [8] was “insoluble”.
CCCCCCCC/C=C\CCCCCCCc1nc(C[C@H](O[C@@H]2O[C@H](CN)[C@@H](O)[C@H]2O)[C@H]2O[C@@H](n3ccc(=O)[nH]c3=O)[C@H](O)[C@@H]2O)no1.O=C(O)C(F)(F)F [Compound 12d] gave an IC50 [1, 9] of 18.9 ± 0.9 µM, a CMI [2] greater than 50 µg/mL and a CMI [3] greater than 50 µg/mL. For the same molecule, the CMI [4] was greater than 50 µg/mL, the CMI [5] was greater than 50 µg/mL and the CMI [6] was greater than 50 µg/mL. The CMI [7] was greater than 50 µg/mL and the “solubility in 5%DMSO-water” value [8] was “insoluble”.
NC[C@H]1O[C@@H](O[C@@H](Cc2noc(-c3ccc(Oc4ccccc4)cc3)n2)[C@H]2O[C@@H](n3ccc(=O)[nH]c3=O)[C@H](O)[C@@H]2O)[C@H](O)[C@@H]1O.O=C(O)C(F)(F)F [Compound 12e] showed an IC50 [1, 9] of 3.2 ± 0.2 µM, a CMI [2] greater than 50 µg/mL and a CMI [3] greater than 50 µg/mL. For the same molecule, the CMI [4] was greater than 50 µg/mL, the CMI [5] was greater than 50 µg/mL and the CMI [6] was greater than 50 µg/mL. It also gave a CMI [7] greater than 50 µg/mL.
For CCCCCCCC/C=C/CCCCCCCc1nc(C[C@H](O[C@@H]2O[C@H](CN)[C@@H](O)[C@H]2O)[C@H]2O[C@@H](n3ccc(=O)[nH]c3=O)[C@H](O)[C@@H]2O)no1.O=C(O)C(F)(F)F [Compound 12f], the IC50 [1, 9] was 17.3 ± 0.3 µM, the CMI [2] was greater than 50 µg/mL and the CMI [3] was 50 µg/mL. The CMI [4] was greater than 50 µg/mL, the CMI [5] was greater than 50 µg/mL and the CMI [6] was 50 µg/mL. The CMI [7] was 50 µg/mL and the “solubility in 5%DMSO-water” value [8] was “insoluble”.
NC[C@H]1O[C@@H](O[C@@H](Cc2noc(CCCCCCCCCc3ccccc3)n2)[C@H]2O[C@@H](n3ccc(=O)[nH]c3=O)[C@H](O)[C@@H]2O)[C@H](O)[C@@H]1O.O=C(O)C(F)(F)F [Compound 12g] showed an IC50 [1, 9] of 5.8 ± 0.1 µM, a CMI [2] greater than 50 µg/mL and a CMI [3] greater than 50 µg/mL. It also gave a CMI [4] greater than 50 µg/mL, a CMI [5] greater than 50 µg/mL and a CMI [6] greater than 50 µg/mL. For the same molecule, the CMI [7] was greater than 50 µg/mL.
With CCCCCCCCCCC(CCCCCCCCCC)c1nc(C[C@H](O[C@@H]2O[C@H](CN)[C@@H](O)[C@H]2O)[C@H]2O[C@@H](n3ccc(=O)[nH]c3=O)[C@H](O)[C@@H]2O)no1.O=C(O)C(F)(F)F [Compound 12i] the “IC50 against MraYAA” value [1, 9] was “no activity; also recorded: N.I. ^e”, the CMI [2] was greater than 50 µg/mL and the CMI [3] was greater than 50 µg/mL. The CMI [4] was greater than 50 µg/mL, the CMI [5] was greater than 50 µg/mL and the CMI [6] was greater than 50 µg/mL. For the same molecule, the CMI [7] was greater than 50 µg/mL and the “solubility in 5%DMSO-water” value [8] was “insoluble”.
In the case of CCCCCCCCCC(C(=O)O)c1nc(C[C@H](O[C@@H]2O[C@H](CN)[C@@H](O)[C@H]2O)[C@H]2O[C@@H](n3ccc(=O)[nH]c3=O)[C@H](O)[C@@H]2O)no1 (some centres unmarked) [Compound 12j], the IC50 [1, 9] is reported as 2.9 ± 0.6 µM and the “activity relative to the parent ester” value ([1]; relative to parent ethyl ester (12h), MraYAA) is reported as “almost tenfold more active”.
CCCCCCCCCCc1cn(C[C@H](O[C@@H]2O[C@H](CN)[C@@H](O)[C@H]2O)[C@H]2O[C@@H](n3ccc(=O)[nH]c3=O)[C@H](O)[C@@H]2O)nn1 [Compound 13, reference compound] gave an IC50 [1, 9] of 1.1 µM.
With CCN1CCN(C(=O)N[C@@H](C(=O)N[C@@H]2C(=O)N3[C@@H]2SC(C)(C)[C@@H]3C(=O)O)c2ccccc2)C(=O)C1=O [Piperacillin, reference compound] the CMI [2] was 4 µg/mL, the CMI [3] was 4 µg/mL and the CMI [4] was 4 µg/mL. For the same molecule, the CMI [5] was 8 µg/mL, the CMI [6] was 4 µg/mL and the CMI [7] was greater than 128 µg/mL.
CN[C@H](CC(C)C)C(=O)N[C@H]1C(=O)N[C@@H](CC(N)=O)C(=O)N[C@H]2C(=O)N[C@H]3C(=O)N[C@H](C(=O)N[C@H](C(=O)O)c4cc(O)cc(O)c4-c4cc3ccc4O)[C@H](O)c3ccc(c(Cl)c3)Oc3cc2cc(c3O[C@@H]2O[C@H](CO)[C@@H](O)[C@H](O)[C@H]2O[C@H]2C[C@](C)(N)[C@H](O)[C@H](C)O2)Oc2ccc(cc2Cl)[C@H]1O [Vancomycin, reference compound] showed a CMI [3] of 0.5 µg/mL, a CMI [6] of 1 µg/mL and a CMI [7] of 1 µg/mL.
In the case of Tunicamycin [reference compound], the IC50 [1, 9] is reported as 0.026 µM.
